Laboratory results taken from US20260078120A1, “SUBSTITUTED PYRIDOPYRIMIDINONES” (MIRATI THERAPEUTICS, INC., priority 2022, published 2026).
Read-outs that look alike come from different tables or passages of the source.

Key:
Format in all cases: cell-based
[1] = system: T47D (PI3Kα H1047R mutant) cells; assay: Inhibition of pAKT formation, alphaLISA SureFire Ultra AKT 1/2/3 (pS473), T47D cells
Protocol: The ability of a compound of Formula (I) to inhibit the formation of pAKT was measured using alphaLISA Surefire Ultra AKT 1/2/3 (pS473) Assay Kit (#ALSU-PAKT-B50K) was obtained from Perkin Elmer (Waltham, MA).
To prepare assay plates for pAKT alphaLISA assays, cells were trypsinized, resuspended in fresh media, and viable cells were counted utilizing trypan blue exclusion. Prior to seeding, cells were washed with PBS and resuspended in HBSS (Gibco, #14025092). T47D (12,000/w), SKBR3(12,000/w), or MKN1(24,000/w) cells were seeded at 12 μl per well in a solid white flat bottom 384 cell culture plate (Perkin Elmer #6007680).
Immediately after seeding, cells were dosed using an Echo Liquid Handler (Beckman Coulter) with compounds at a […] starting concentration and serially diluted (1:4) for a total of 10 concentrations. […] Cells were incubated with the compounds (solubilized in DMSO) for approximately one hour or 24 hours at 37° C. After one hour (or 24 hours) of treatment, cells were lysed with 3 μl of the 5× lysis buffer (provided and incubated at room temperature for 15 min on a microtiter plate shaker). Once cells were sufficiently lysed, 7.5 μl of the acceptor bead mix (made using the manufacturers recommended dilutions) was added to each well and left on the microtiter plate shaker for 1 min prior to incubating plates at room temperature for one hour, in the absence of light. After one hour of incubation with the acceptor bead mix, 7.5 μl of the donor bead mix (made using the manufacturers recommended dilutions) was added to each well and left on the microtiter plate shaker for 1 min prior to incubating plates at room temperature overnight in the absence of light. Plates were then imaged the following day using a CLARIOstar microplate reader (BMG Labtech, Germany).
Percent of control values were calculated by subtracting the average signal from the positive control (alpelisib) treated wells from all treated wells (including DMSO control wells) and then divided by the average signal from the vehicle DMSO treated control wells. Percent of vehicle control values were plotted as log (inhibitor) vs. response-Variable slope (four parameters) for curve fitting and IC50 values were determined using XLfit.
Key: N.D. =not determined
Inhibition of pAKT in T47D (PI3Kα H1047R mutant) cells by Exemplary Compounds of Formula (I)

[2] = system: T47D (PI3Kα H1047R mutant) cells; assay: CellTiter-Glo 2.0 luminescent cell viability assay, 72 hours, T47D cells
Outline: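 Viability was measured by CellTiter-Glo 2.0 luminescence after approximately 72 h of compound exposure at 37° C. Plating was 1000 cells per well the day before dosing, with ten 1:4 dilutions from a 10 µM top concentration. Values as percent of vehicle were fitted by variable-slope log(inhibitor) regression to give IC50.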

[3] = system: SKBR3 (PI3Kα wild type) cells; assay: CellTiter-Glo 2.0 luminescent cell viability assay, 72 hours, SKBR3 cells
Outline: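 Viability measured via CTG luminescence following roughly 72 hours of compound exposure at 37° C. Dosing used a 10 um starting concentration diluted 1:4 over 10 points; percent-of-vehicle data fitted with a variable-slope four-parameter model for IC50.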

[4] = Homo sapiens, T47D, T47D (PI3Kα H1047R mutant) cells, inhibition of pAKT (pS473) formation, approximately one hour or 24 hours treatment, read-out: T47D pAKT (H1047R mutant) IC50
[5] = Homo sapiens, T47D, 72 h, T47D (PI3Kα H1047R mutant) cells, CellTiter-Glo, approximately 72 hours, read-out: T47D (H1047R mutant) Viability IC50
[6] = Homo sapiens, SK-BR-3, 72 h, SKBR3 (PI3Kα wild type) cells, CellTiter-Glo, approximately 72 hours, read-out: SKBR3 (WT) Viability IC50

IC50 [1, 4] [nM] | IC50 [2, 5] [nM] | IC50 [3, 6] [nM] | Compound | other results
0.905 | 84.4 | > 10000 | Cc1cc([C@@H](C)Nc2ccccc2C(=O)O)c2nc(N3CC[C@H]3C)c(C#N)c(=O)n2c1 (single isomer, unassigned) [Example 10-96] | 
0.853 | 36.4 | > 10000 | Cc1cc([C@@H](C)Nc2ccccc2C(=O)O)c2nc(NCC3CC3)c(C#N)c(=O)n2c1 [Example 10-15, (R)-2-((1-(3-cyano-2-((cyclopropylmethyl)amino)-7-methyl-4-oxo-4H-pyrido[1,2-a]pyrimidin-9-yl)ethyl)amino)benzoic acid] | 
5.78 | 67.3 | > 10000 | Cc1cc([C@@H](C)Nc2ccccc2C(=O)O)c2nc(N3CCC(F)(F)[C@H]3C)c(C#N)c(=O)n2c1 [Example 10-32, 2-(((R)-1-(3-cyano-2-((R)-3,3-difluoro-2-methylpyrrolidin-1-yl)-7-methyl-4-oxo-4H-pyrido[1,2-a]pyrimidin-9-yl)ethyl)amino)benzoic acid] | 
3.82 | 86.2 | > 10000 | Cc1cc([C@@H](C)Nc2ccccc2C(=O)O)c2nc(N3CC4C(C3)C4(F)F)c(C#N)c(=O)n2c1 (stereo partly drawn) [Example 10-100, 2-(((1R)-1-(3-cyano-2-(6,6-difluoro-3-azabicyclo[3.1.0]hexan-3-yl)-7-methyl-4-oxo-4H-pyrido[1,2-a]pyrimidin-9-yl)ethyl)amino)benzoic acid] | 
2.67 | 93.7 | 8830 | Cc1cc([C@@H](C)Nc2ccccc2C(=O)O)c2nc(N3CCN(c4ccc(C#N)cc4)CC3C)c(C#N)c(=O)n2c1 (stereo partly drawn) [Example 10-109, 2-(((1R)-1-(3-cyano-2-(4-(4-cyanophenyl)-2-methylpiperazin-1-yl)-7-methyl-4-oxo-4H-pyrido[1,2-a]pyrimidin-9-yl)ethyl)amino)benzoic acid] | 

Second part, the compound before the results:

Compound | IC50 [1, 4] [nM] | IC50 [2, 5] [nM] | IC50 [3, 6] [nM] | other results
Cc1cc([C@@H](C)Nc2ccccc2C(=O)O)c2nc(N3CCN(CC(F)F)CC3)c(C)c(=O)n2c1 [Example 10-91, (R)-2-((1-(2-(4-(2,2-difluoroethyl)piperazin-1-yl)-3,7-dimethyl-4-oxo-4H-pyrido[1,2-a]pyrimidin-9-yl)ethyl)amino)benzoic acid] | 2.55 | 82.5 | > 10000 | 
Cc1cc([C@@H](C)Nc2ccccc2C(=O)O)c2nc(N3Cc4cc(F)c(F)cc4C3)c(C#N)c(=O)n2c1 [Example 10-87, (R)-2-((1-(3-cyano-2-(5,6-difluoroisoindolin-2-yl)-7-methyl-4-oxo-4H-pyrido[1,2-a]pyrimidin-9-yl)ethyl)amino)benzoic acid] | 2.23 | 80.2 | > 10000 | 
Cc1cc([C@@H](C)Nc2ccccc2C(=O)O)c2nc(N3CCN(C(=O)c4ccccc4)CC3)c(C)c(=O)n2c1 [Example 10-117, (R)-2-((1-(2-(4-benzoylpiperazin-1-yl)-3,7-dimethyl-4-oxo-4H-pyrido[1,2-a]pyrimidin-9-yl)ethyl)amino)benzoic acid] | 2.16 | 101 | 3720 | 
Cc1cc([C@@H](C)Nc2ccccc2C(=O)O)c2nc(N3CCN(c4cccnc4)CC3)c(C)c(=O)n2c1 [Example 10-38, (R)-2-((1-(3,7-dimethyl-4-oxo-2-(4-(pyridin-3-yl)piperazin-1-yl)-4H-pyrido[1,2-a]pyrimidin-9-yl)ethyl)amino)benzoic acid] | 1.97 | 57.9 | > 10000 | 
Cc1cc([C@@H](C)Nc2ccccc2C(=O)O)c2nc(N3CCC4(CC3)C(F)(F)C4(F)F)c(C#N)c(=O)n2c1 [Example 10-81, (R)-2-((1-(3-cyano-7-methyl-4-oxo-2-(1,1,2,2-tetrafluoro-6-azaspiro[2.5]octan-6-yl)-4H-pyrido[1,2-a]pyrimidin-9-yl)ethyl)amino)benzoic acid] | 2.53 | 78.5 | > 10000 | 
Cc1cc([C@@H](C)Nc2ccccc2C(=O)O)c2nc(N3CCN(c4ccc(C#N)cc4)[C@@H](C)C3)c(C)c(=O)n2c1 [Example 10-21, 2-(((R)-1-(2-((S)-4-(4-cyanophenyl)-3-methylpiperazin-1-yl)-3,7-dimethyl-4-oxo-4H-pyrido[1,2-a]pyrimidin-9-yl)ethyl)amino)benzoic acid] | 2.34 | 45.8 | 8070 | 
Cc1cc([C@@H](C)Nc2ccccc2C(=O)O)c2nc(N3CCN(c4ccc(C#N)cc4)C[C@H]3C)c(C)c(=O)n2c1 [Example 10-42, 2-(((R)-1-(2-((R)-4-(4-cyanophenyl)-2-methylpiperazin-1-yl)-3,7-dimethyl-4-oxo-4H-pyrido[1,2-a]pyrimidin-9-yl)ethyl)amino)benzoic acid] |  |  |  | IC50 ([1]; T47D (PI3Kα H1047R mutant) cells, inhibition of pAKT (pS473) formation, approximately one hour or 24 hours treatment, read-out: T47D pAKT (H1047R mutant) IC50): 3.09 nM; IC50 ([2]; T47D (PI3Kα H1047R mutant) cells, CellTiter-Glo, approximately 72 hours, read-out: T47D (H1047R mutant) Viability IC50): 61.5 nM; IC50 ([3]; SKBR3 (PI3Kα wild type) cells, CellTiter-Glo, approximately 72 hours, read-out: SKBR3 (WT) Viability IC50): 9870 nM
Cc1cc([C@@H](C)Nc2ccccc2C(=O)O)c2nc(N3CCN(c4ccc(C#N)cc4)C(C)C3)c(C)c(=O)n2c1 (stereo partly drawn) [Example 10-110, 2-(((1R)-1-(2-(4-(4-cyanophenyl)-3-methylpiperazin-1-yl)-3,7-dimethyl-4-oxo-4H-pyrido[1,2-a]pyrimidin-9-yl)ethyl)amino)benzoic acid] | 1.05 | 94.1 | > 10000 | 
Cc1cc([C@@H](C)Nc2ccccc2C(=O)O)c2nc(N3CCN(c4ncc(C#N)cn4)CC3)c(C#N)c(=O)n2c1 [Example 10-112, (R)-2-((1-(3-cyano-2-(4-(5-cyanopyrimidin-2-yl)piperazin-1-yl)-7-methyl-4-oxo-4H-pyrido[1,2-a]pyrimidin-9-yl)ethyl)amino)benzoic acid] | 6.23 | 96.7 | > 10000 | 
Cc1cc([C@@H](C)Nc2ccccc2C(=O)O)c2nc(N3CCN(c4ccc(C#N)c5cnccc45)CC3)c(C)c(=O)n2c1 [Example 10-19, (R)-2-((1-(2-(4-(8-cyanoisoquinolin-5-yl)piperazin-1-yl)-3,7-dimethyl-4-oxo-4H-pyrido[1,2-a]pyrimidin-9-yl)ethyl)amino)benzoic acid] |  |  |  | IC50 ([1]; Homo sapiens, T47D, read-out: T47D pAKT (H1047R mutant) IC50 (nM)): 0.244 nM; IC50 ([2]; Homo sapiens, T47D, 72 h, read-out: T47D (H1047R mutant) Viability IC50 (nM)): 41.4 nM; IC50 ([3]; Homo sapiens, SK-BR-3, 72 h, read-out: SKBR3 (WT) Viability IC50 (nM)): 7640 nM
Cc1cc([C@@H](C)Nc2ccccc2C(=O)O)c2nc(N3CCN(c4ccc(C#N)cc4F)CC3)c(C#N)c(=O)n2c1 [Example 10-94, (R)-2-((1-(3-cyano-2-(4-(4-cyano-2-fluorophenyl)piperazin-1-yl)-7-methyl-4-oxo-4H-pyrido[1,2-a]pyrimidin-9-yl)ethyl)amino)benzoic acid] | 2.02 | 83.6 | > 10000 | 
C[C@@H](Nc1ccccc1C(=O)O)c1cc(F)cn2c(=O)c(C#N)c(N3Cc4ccccc4C3)nc12 [Example 10-39, (R)-2-((1-(3-cyano-7-fluoro-2-(isoindolin-2-yl)-4-oxo-4H-pyrido[1,2-a]pyrimidin-9-yl)ethyl)amino)benzoic acid] | 1.7 | 59 | > 10000 | 
Cc1cc([C@@H](C)Nc2ccccc2C(=O)O)c2nc(N3CCN(c4ccc(F)cc4)CC3)c(C)c(=O)n2c1 [Example 10-36, (R)-2-((1-(2-(4-(4-fluorophenyl)piperazin-1-yl)-3,7-dimethyl-4-oxo-4H-pyrido[1,2-a]pyrimidin-9-yl)ethyl)amino)benzoic acid] | 3.8 | 57 | > 10000 | 
